The molecules below were run against Erk1 (Homo sapiens (Human), UniProt P27361) (assay: Protein Mass Modification Assay (intact protein MALDI)).
Type: binding
Procedure: Protein Mass Modification Assay
Intact protein: Erk1 from Millipore (Cat. No. 14-439) was incubated for 60 min. at room temperature with a 10-fold excess of test compound to protein. 4 μL aliquots of the resulting mixture were diluted with 15 μL of 0.2% TFA prior to micro C4 ZipTipping directly onto the MALDI target using sinapinic acid as the desorption matrix (10 mg/ml in 0.1% TFA:Acetonitrile 50:50, v/v). The centroid mass of the target protein in the control sample was compared with the centroid mass of the target protein incubated with compound. A shift in the centroid mass of the treated protein compared to the untreated protein was divided by the molecular weight of the compound. This number corresponds to the percentage of modified protein after one hour incubation. Results from this assay are reported in Table A under the column “ERK1 Mass Mod (%).”

Erk1, sequence (P27361 whole entry, looked up): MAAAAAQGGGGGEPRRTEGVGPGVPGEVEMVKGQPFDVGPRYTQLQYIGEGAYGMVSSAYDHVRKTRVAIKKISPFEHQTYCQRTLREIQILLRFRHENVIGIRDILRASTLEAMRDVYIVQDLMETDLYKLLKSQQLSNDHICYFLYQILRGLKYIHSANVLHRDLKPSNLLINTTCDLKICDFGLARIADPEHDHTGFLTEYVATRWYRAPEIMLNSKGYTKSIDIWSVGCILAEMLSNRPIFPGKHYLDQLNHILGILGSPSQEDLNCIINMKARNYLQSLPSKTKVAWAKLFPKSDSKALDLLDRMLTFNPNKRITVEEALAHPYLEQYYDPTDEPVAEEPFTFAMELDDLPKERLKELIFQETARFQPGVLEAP

Question: How did the “ERK1 Mass Mod (%)” value turn out when `C=CC(=O)Nc1ccccc1Nc1nc(Nc2cc(C(=O)NOCCO)ccc2OC)ncc1Cl` [Compound I-194, 3-((4-((2-acrylamidophenyl)amino)-5-chloropyrimidin-2-yl)amino)-N-(2-hydroxyethoxy)-4-methoxybenzamide] was run?
Answer: E (provided a mass modification of ≧70%)

Question: Which “ERK1 Mass Mod (%)” value does the source give for `C=CC(=O)Nc1ccccc1Nc1nc(N[C@H]2CCN(S(C)(=O)=O)C2)ncc1C(F)(F)F` [Compound I-58, (S)—N-(2-((2-((1-(Methylsulfonyl)pyrrolidin-3-yl)amino)-5-(trifluoromethyl)pyrimidin-4-yl)amino)phenyl)acrylamide] here?
Answer: E (provided a mass modification of ≧70%)

Question: `C=CC(=O)Nc1ccccc1Nc1nc(Nc2ccc3c(c2OC)CCCC(=O)N3CCCN)ncc1Cl` [Compound I-148, N-(2-((2-((1-(3-aminopropyl)-6-methoxy-2-oxo-2,3,4,5-tetrahydro-1H-benzo[b]azepin-7-yl)amino)-5-chloropyrimidin-4-yl)amino)phenyl)acrylamide] was tested. Which “ERK1 Mass Mod (%)” value did it give?
Answer: E (provided a mass modification of ≧70%)

Question: For `C=CC(=O)N[C@@H]1CCCC[C@H]1Oc1nc(Nc2cc(C(N)=O)ccc2C)ncc1Cl` (racemic) [Compound I-270, Rac-trans-3-((4-((2-acrylamidocyclohexyl)oxy)-5-chloropyrimidin-2-yl)amino)-4-methylbenzamide], which “ERK1 Mass Mod (%)” value is on record?
Answer: G (proived a mass modification ≦30%)

Question: With `C=CC(=O)Nc1ccccc1Nc1nc(Nc2ccc(N3CCN(C(=O)CCCC(=O)NCCCOCCOCCOCCCNC(=O)CCCC[C@@H]4SC[C@@H]5NC(=O)N[C@@H]54)CC3)cc2OC(F)F)ncc1Cl` [Compound I-306, 5-(4-(4-((4-((2-acrylamidophenyl)amino)-5-chloropyrimidin-2-yl)amino)-3-(difluoromethoxy)phenyl)piperazin-1-yl)-5-oxo-N-(15-oxo-19-((3aS,4S,6aR)-2-oxohexahydro-1H-thieno[3,4-d]imidazol-4-yl)-4,7,10-trioxa-14-azanonadecyl)pentanamide] as the molecule, how does the “ERK1 Mass Mod (%)” value read?
Answer: E (provided a mass modification of ≧70%)

Question: `C=CC(=O)Nc1cc(C)ccc1Nc1nc(Nc2cc(OC)nc(N3CCN(CC)CC3)c2)ncc1C(F)(F)F` [Compound I-89, N-(2-((2-((2-(4-Ethylpiperazin-1-yl)-6-methoxypyridin-4-yl)amino)-5-(trifluoromethyl)pyrimidin-4-yl)amino)-5-methylphenyl)acrylamide] was tested. Which “ERK1 Mass Mod (%)” value did it give?
Answer: F (provided a mass modification of 31-69%)

Question: `C=CC(=O)Nc1ccccc1Nc1nc(N[C@H]2CCN(C(=O)OC)C2)ncc1C(F)(F)F` [Compound I-59, (S)-methyl 3-((4-((2-Acrylamidophenyl)amino)-5-(trifluoromethyl)pyrimidin-2-yl)amino)pyrrolidine-1-carboxylate] was tested. Which “ERK1 Mass Mod (%)” value did it give?
Answer: E (provided a mass modification of ≧70%)

Question: With `C=CC(=O)N(C)c1ccccc1Nc1nc(N[C@@H]2CCC[C@H](C(N)=O)C2)ncc1Cl` (racemic) [Compound I-105, Rac-cis-3-((5-chloro-4-((2-(N-methylacrylamido)phenyl)amino)pyrimidin-2-yl)amino)cyclohexanecarboxamide] as the molecule, how does the “ERK1 Mass Mod (%)” value read?
Answer: F (provided a mass modification of 31-69%)

Question: For `C=CC(=O)Nc1ccccc1Oc1nc(Nc2ccc(N3CCC[C@@H]3CO)cc2OC)ncc1C(N)=O` [Compound I-263, (R)-4-(2-acrylamidophenoxy)-2-((4-(2-(hydroxymethyl)pyrrolidin-1-yl)-2-methoxyphenyl)amino)pyrimidine-5-carboxamide], which “ERK1 Mass Mod (%)” value is on record?
Answer: E (provided a mass modification of ≧70%)

Question: How did the “ERK1 Mass Mod (%)” value turn out when `C=CC(=O)Nc1ccccc1Nc1nc(N[C@H]2CCCN(C(=O)[C@H](C)O)C2)ncc1Cl` [Compound I-138, N-(2-((5-chloro-2-(((S)-1-((S)-2-hydroxypropanoyl)piperidin-3-yl)amino)pyrimidin-4-yl)amino)phenyl)acrylamide] was run?
Answer: E (provided a mass modification of ≧70%)

Question: With `C=CC(=O)Nc1cc(F)ccc1Nc1nc(Nc2ccc(F)cc2OC)ncc1Cl` [Compound I-213, N-(2-((5-chloro-2-((4-fluoro-2-methoxyphenyl)amino)pyrimidin-4-yl)amino)-5-fluorophenyl)acrylamide] as the molecule, how does the “ERK1 Mass Mod (%)” value read?
Answer: E (provided a mass modification of ≧70%)

Question: With `C=CC(=O)Nc1ccccc1Nc1nc(Nc2cc(C(=O)O)ccc2C)ncc1Cl` [Compound I-225, 3-((4-((2-acrylamidophenyl)amino)-5-chloropyrimidin-2-yl)amino)-4-methylbenzoic acid] as the molecule, how does the “ERK1 Mass Mod (%)” value read?
Answer: F (provided a mass modification of 31-69%)

Question: For `C=CC(=O)Nc1cc(C)ccc1Nc1nc(Nc2cc(OC)nc(N(C)C3CC3)c2)ncc1C(F)(F)F` [Compound I-342, N-(2-((2-((2-(cyclopropyl(methyl)amino)-6-methoxypyridin-4-yl)amino)-5-(trifluoromethyl)pyrimidin-4-yl)amino)-5-methylphenyl)acrylamide], which “ERK1 Mass Mod (%)” value is on record?
Answer: E (provided a mass modification of ≧70%)

Question: How did the “ERK1 Mass Mod (%)” value turn out when `C=CC(=O)Nc1cc(F)ccc1Nc1nc(Nc2cc(C(N)=O)ccc2C#N)ncc1Cl` [Compound I-207, 3-(4-(2-acrylamido-4-fluorophenylamino)-5-chloropyrimidin-2-ylamino)-4-cyanobenzamide] was run?
Answer: E (provided a mass modification of ≧70%)

Question: With `C=CC(=O)Nc1ccccc1Nc1nc(Nc2ccc(N3CCOCC3)cc2OC)ncc1C(F)(F)F` [Compound I-65, N-(2-((2-((2-Methoxy-4-morpholinophenyl)amino)-5-(trifluoromethyl)pyrimidin-4-yl)amino)phenyl)acrylamide] as the molecule, how does the “ERK1 Mass Mod (%)” value read?
Answer: E (provided a mass modification of ≧70%)

Question: How did the “ERK1 Mass Mod (%)” value turn out when `C=CC(=O)N(C)c1ccccc1Nc1nc(Nc2cc(C(N)=O)ccc2C#N)ncc1Cl` [Compound I-196, 3-((5-chloro-4-((2-(N-methylacrylamido)phenyl)amino)pyrimidin-2-yl)amino)-4-cyanobenzamide] was run?
Answer: E (provided a mass modification of ≧70%)

Question: Which “ERK1 Mass Mod (%)” value does the source give for `CC(=O)N1CCC[C@H](Nc2ncc(C(F)(F)F)c(Nc3ccccc3NC(=O)CCCl)n2)C1` [Compound I-21, (S)—N-(2-((2-((1-Acetylpiperidin-3-yl)amino)-5-(trifluoromethyl)pyrimidin-4-yl)amino)phenyl)-3-chloropropanamide] here?
Answer: F (provided a mass modification of 31-69%)

Question: For `C=CC(=O)Nc1ccccc1Nc1nc(Nc2cc(NC(=O)CCCC(=O)NCCCOCCOCCOCCCNC(=O)CCCC[C@@H]3SC[C@@H]4NC(=O)N[C@@H]43)cc(C(N)=O)c2)ncc1Cl` [Compound I-304, N^1-(3-((4-((2-acrylamidophenyl)amino)-5-chloropyrimidin-2-yl)amino)-5-carbamoylphenyl)-N-(15-oxo-19-((3aS,4S,6aR)-2-oxohexahydro-1H-thieno[3,4-d]imidazol-4-yl)-4,7,10-trioxa-14-azanonadecyl)glutaramide], which “ERK1 Mass Mod (%)” value is on record?
Answer: G (proived a mass modification ≦30%)

Question: Which “ERK1 Mass Mod (%)” value does the source give for `C=CC(=O)Nc1ccccc1Nc1nc(Nc2ccc3c(c2OC)CCCC(=O)N3CCCN2CCOCC2)ncc1Cl` [Compound I-146, N-(2-((5-chloro-2-((6-methoxy-1-(3-morpholinopropyl)-2-oxo-2,3,4,5-tetrahydro-1H-benzo[b]azepin-7-yl)amino)pyrimidin-4-yl)amino)phenyl)acrylamide] here?
Answer: E (provided a mass modification of ≧70%)

Question: `C=CC(=O)Nc1ccccc1Nc1nc(Nc2cc(C(=O)NOCCO)ccc2C#N)ncc1C(F)(F)F` [Compound I-75, 3-((4-((2-Acrylamidophenyl)amino)-5-(trifluoromethyl)pyrimidin-2-yl)amino)-4-cyano-N-(2-hydroxyethoxy)benzamide] was tested. Which “ERK1 Mass Mod (%)” value did it give?
Answer: E (provided a mass modification of ≧70%)

Question: For `O=C(CCl)N[C@@H]1CCCC[C@H]1Nc1nc(N[C@H]2CCCN(C(=O)CO)C2)ncc1C(F)(F)F` [Compound I-35, 2-Chloro-N-((1R,2R)-2-((2-(((S)-1-(2-hydroxyacetyl)piperidin-3-yl)amino)-5-(trifluoromethyl)pyrimidin-4-yl)amino)cyclohexyl)acetamide], which “ERK1 Mass Mod (%)” value is on record?
Answer: G (proived a mass modification ≦30%)

Question: For `C=CC(=O)Nc1ccccc1Nc1nc(Nc2ccc(N3CCOCC3)cc2OC)ncc1/C(C)=N/OC` [Compound I-274, (E)-N-(2-((2-((2-methoxy-4-morpholinophenyl)amino)-5-(1-(methoxyimino)ethyl)pyrimidin-4-yl)amino)phenyl)acrylamide], which “ERK1 Mass Mod (%)” value is on record?
Answer: G (proived a mass modification ≦30%)

Question: With `C=CC(=O)Nc1cc(OC)ccc1Nc1nc(Nc2ccc(N3CCC[C@@H]3CO)cc2C#N)ncc1Cl` [Compound I-181, (R)—N-(2-((5-chloro-2-((2-cyano-4-(2-(hydroxymethyl)pyrrolidin-1-yl)phenyl)amino)pyrimidin-4-yl)amino)-5-methoxyphenyl)acrylamide] as the molecule, how does the “ERK1 Mass Mod (%)” value read?
Answer: E (provided a mass modification of ≧70%)

Question: `C=CC(=O)Nc1ccccc1Nc1nc(NC(C)(C)C)ncc1C(F)(F)F` [Compound I-82, N-(2-((2-(tert-Butylamino)-5-(trifluoromethyl)pyrimidin-4-yl)amino)phenyl)acrylamide] was tested. Which “ERK1 Mass Mod (%)” value did it give?
Answer: E (provided a mass modification of ≧70%)

Question: Which “ERK1 Mass Mod (%)” value does the source give for `C=CC(=O)Nc1cc(OC)ccc1Nc1nc(Nc2ccc(N3CCC[C@@H]3C(N)=O)cc2C#N)ncc1Cl` [Compound I-180, (R)-1-(4-((4-((2-acrylamido-4-methoxyphenyl)amino)-5-chloropyrimidin-2-yl)amino)-3-cyanophenyl)pyrrolidine-2-carboxamide] here?
Answer: E (provided a mass modification of ≧70%)

Question: With `C=CC(=O)Nc1cc(OC)ccc1Nc1nc(Nc2ccc(N(CC)C(C)=O)cc2C(F)(F)F)ncc1Cl` [Compound I-176, N-(2-((5-chloro-2-((4-(N-ethylacetamido)-2-(trifluoromethyl)phenyl)amino)pyrimidin-4-yl)amino)-5-methoxyphenyl)acrylamide] as the molecule, how does the “ERK1 Mass Mod (%)” value read?
Answer: E (provided a mass modification of ≧70%)

Source: patent publication US9796700B2 (Celgene CAR LLC, priority 2013, dated 2017)
